Results reported in article PMC9481151, “Discovery of new symmetrical and asymmetrical nitrile-containing 1,4-dihydropyridine derivatives as dual kinases and P-glycoprotein inhibitors: synthesis, in vitro assays, and in silico studies” (Journal of Enzyme Inhibition and Medicinal Chemistry, 2022).

Columns and labels:
[1] = system: PC-3; experiment: NCI single dose (10 µM) SRB screen; assay type: cell-based, human; conditions: prostate cancer, 48 h
[2] = system: M14; experiment: NCI single dose (10 µM) SRB screen; assay type: cell-based, human; conditions: melanoma, 48 h
[3] = system: Pseudomonas aeruginosa; experiment: Agar well diffusion method; conditions: relative to ciprofloxacin
[4] = system: UO-31; experiment: NCI single dose (10 µM) SRB screen; assay type: cell-based, human; conditions: renal cancer, 48 h
[5] = system: RXF 393; experiment: NCI single dose (10 µM) SRB screen; assay type: cell-based, human; conditions: renal cancer, 48 h
[6] = system: SNB-75; experiment: NCI single dose (10 µM) SRB screen; assay type: cell-based, human; conditions: CNS cancer, 48 h
[7] = system: HT29; experiment: NCI single dose (10 µM) SRB screen; assay type: cell-based, human; conditions: colon cancer, 48 h
[8] = system: NCI-H23; experiment: NCI single dose (10 µM) SRB screen; assay type: cell-based, human; conditions: non-small cell lung cancer, 48 h
[9] = system: TK-10; experiment: NCI single dose (10 µM) SRB screen; assay type: cell-based, human; conditions: renal cancer, 48 h
[10] = system: UACC-62; experiment: NCI single dose (10 µM) SRB screen; assay type: cell-based, human; conditions: melanoma, 48 h
[11] = system: SK-MEL-28; experiment: NCI single dose (10 µM) SRB screen; assay type: cell-based, human; conditions: melanoma, 48 h
[12] = system: A498; experiment: NCI single dose (10 µM) SRB screen; assay type: cell-based, human; conditions: renal cancer, 48 h
[13] = system: Aspergillus flavus; experiment: Agar well diffusion method
[14] = system: UACC-257; experiment: NCI single dose (10 µM) SRB screen; assay type: cell-based, human; conditions: melanoma, 48 h
[15] = system: SF-295; experiment: NCI single dose (10 µM) SRB screen; assay type: cell-based, human; conditions: CNS cancer, 48 h
[16] = system: CAKI-1; experiment: NCI single dose (10 µM) SRB screen; assay type: cell-based, human; conditions: renal cancer, 48 h
[17] = system: NCI-H460; experiment: NCI single dose (10 µM) SRB screen; assay type: cell-based, human; conditions: non-small cell lung cancer, 48 h
[18] = system: SN12C; experiment: NCI single dose (10 µM) SRB screen; assay type: cell-based, human; conditions: renal cancer, 48 h
[19] = system: MCF7; experiment: NCI single dose (10 µM) SRB screen; assay type: cell-based, human; conditions: breast cancer, 48 h
[20] = system: Escherichia coli; experiment: Agar well diffusion method; conditions: relative to ciprofloxacin
[21] = system: NCI/ADR-RES; experiment: NCI single dose (10 µM) SRB screen; assay type: cell-based, human; conditions: ovarian cancer, 48 h
[22] = system: RPMI-8226; experiment: NCI single dose (10 µM) SRB screen; assay type: cell-based, human; conditions: leukaemia, 48 h
[23] = system: HL-60(TB); experiment: NCI single dose (10 µM) SRB screen; assay type: cell-based, human; conditions: leukaemia, 48 h
[24] = system: MDA-MB-435; experiment: NCI single dose (10 µM) SRB screen; assay type: cell-based, human; conditions: melanoma, 48 h
[25] = system: Candida albicans; experiment: Agar well diffusion method; conditions: relative to clotrimazole
[26] = system: COLO 205; experiment: NCI single dose (10 µM) SRB screen; assay type: cell-based, human; conditions: colon cancer, 48 h
[27] = system: 786-0; experiment: NCI single dose (10 µM) SRB screen; assay type: cell-based, human; conditions: renal cancer, 48 h
[28] = system: U251; experiment: NCI single dose (10 µM) SRB screen; assay type: cell-based, human; conditions: CNS cancer, 48 h
[29] = system: K-562; experiment: NCI single dose (10 µM) SRB screen; assay type: cell-based, human; conditions: leukaemia, 48 h
[30] = system: MOLT-4; experiment: NCI single dose (10 µM) SRB screen; assay type: cell-based, human; conditions: leukaemia, 48 h
[31] = system: HOP-92; experiment: NCI single dose (10 µM) SRB screen; assay type: cell-based, human; conditions: non-small cell lung cancer, 48 h
[32] = system: T-47D; experiment: NCI single dose (10 µM) SRB screen; assay type: cell-based, human; conditions: breast cancer, 48 h
[33] = system: HCT-15; experiment: NCI single dose (10 µM) SRB screen; assay type: cell-based, human; conditions: colon cancer, 48 h
[34] = system: SK-MEL-2; experiment: NCI single dose (10 µM) SRB screen; assay type: cell-based, human; conditions: melanoma, 48 h
[35] = system: Staphylococcus aureus; experiment: Agar well diffusion method; conditions: relative to ciprofloxacin
[36] = system: DU-145; experiment: NCI single dose (10 µM) SRB screen; assay type: cell-based, human; conditions: prostate cancer, 48 h
[37] = system: NCI-H522; experiment: NCI single dose (10 µM) SRB screen; assay type: cell-based, human; conditions: non-small cell lung cancer, 48 h
[38] = system: CCRF-CEM; experiment: NCI single dose (10 µM) SRB screen; assay type: cell-based, human; conditions: leukaemia, 48 h
[39] = system: NCI 60 cancer cell lines; experiment: NCI single dose (10 µM) SRB screen, mean over panel; assay type: cell-based, human; conditions: mean over 60 cell lines, 48 h
[40] = system: ACHN; experiment: NCI single dose (10 µM) SRB screen; assay type: cell-based, human; conditions: renal cancer, 48 h
[41] = system: EKVX; experiment: NCI single dose (10 µM) SRB screen; assay type: cell-based, human; conditions: non-small cell lung cancer, 48 h
[42] = system: LOX IMVI; experiment: NCI single dose (10 µM) SRB screen; assay type: cell-based, human; conditions: melanoma, 48 h
[43] = system: HOP-62; experiment: NCI single dose (10 µM) SRB screen; assay type: cell-based, human; conditions: non-small cell lung cancer, 48 h
[44] = system: SR; experiment: NCI single dose (10 µM) SRB screen; assay type: cell-based, human; conditions: leukaemia, 48 h
[45] = system: KM12; experiment: NCI single dose (10 µM) SRB screen; assay type: cell-based, human; conditions: colon cancer, 48 h
[46] = system: SF-268; experiment: NCI single dose (10 µM) SRB screen; assay type: cell-based, human; conditions: CNS cancer, 48 h
[47] = system: NCI-H226; experiment: NCI single dose (10 µM) SRB screen; assay type: cell-based, human; conditions: non-small cell lung cancer, 48 h
[48] = system: HCT-116; experiment: NCI single dose (10 µM) SRB screen; assay type: cell-based, human; conditions: colon cancer, 48 h
[49] = system: BT-549; experiment: NCI single dose (10 µM) SRB screen; assay type: cell-based, human; conditions: breast cancer, 48 h
[50] = system: SNB-19; experiment: NCI single dose (10 µM) SRB screen; assay type: cell-based, human; conditions: CNS cancer, 48 h
[51] = system: SW-620; experiment: NCI single dose (10 µM) SRB screen; assay type: cell-based, human; conditions: colon cancer, 48 h
[52] = system: NCI-H322M; experiment: NCI single dose (10 µM) SRB screen; assay type: cell-based; conditions: non-small cell lung cancer, 48 h
[53] = system: IGROV1; experiment: NCI single dose (10 µM) SRB screen; assay type: cell-based, human; conditions: ovarian cancer, 48 h
[54] = system: Bacillus subtilis; experiment: Agar well diffusion method; conditions: relative to ciprofloxacin
[55] = system: MDA-MB-231; experiment: NCI single dose (10 µM) SRB screen; assay type: cell-based, human; conditions: breast cancer, 48 h
[56] = system: OVCAR-8; experiment: NCI single dose (10 µM) SRB screen; assay type: cell-based, human; conditions: ovarian cancer, 48 h
[57] = system: SK-OV-3; experiment: NCI single dose (10 µM) SRB screen; assay type: cell-based, human; conditions: ovarian cancer, 48 h
[58] = system: MALME-3M; experiment: NCI single dose (10 µM) SRB screen; assay type: cell-based, human; conditions: melanoma, 48 h
[59] = system: HCC-2998; experiment: NCI single dose (10 µM) SRB screen; assay type: cell-based, human; conditions: colon cancer, 48 h
[60] = system: A549/ATCC; experiment: NCI single dose (10 µM) SRB screen; assay type: cell-based, human; conditions: non-small cell lung cancer, 48 h
[61] = system: SF-539; experiment: NCI single dose (10 µM) SRB screen; assay type: cell-based, human; conditions: CNS cancer, 48 h
[62] = system: SK-MEL-5; experiment: NCI single dose (10 µM) SRB screen; assay type: cell-based, human; conditions: melanoma, 48 h
[63] = system: MDA-MB-468; experiment: NCI single dose (10 µM) SRB screen; assay type: cell-based, human; conditions: breast cancer, 48 h
[64] = system: OVCAR-5; experiment: NCI single dose (10 µM) SRB screen; assay type: cell-based, human; conditions: ovarian cancer, 48 h
[65] = system: OVCAR-4; experiment: NCI single dose (10 µM) SRB screen; assay type: cell-based, human; conditions: ovarian cancer, 48 h
[66] = system: OVCAR-3; experiment: NCI single dose (10 µM) SRB screen; assay type: cell-based, human; conditions: ovarian cancer, 48 h
[67] = system: HS578T; experiment: NCI single dose (10 µM) SRB screen; assay type: cell-based, human; conditions: breast cancer, 48 h

COC(=O)C1=C(C)NC(C)=C(C(=O)OC(C)(C)C)C1c1cccc(C#N)c1 (racemic) [Compound 2c, (±)-3-Tert-butyl 5-Methyl 4-(3-cyanophenyl)-2,6-dimethyl-1,4-dihydropyridine-3,5-dicarboxylate]
GI% PC-3 [1]: 18%
GI% M14 [2]: – (Only GI% ≥ 10 are shown)
% activity index, P. aeruginosa [3]: – (Values below 25 are of limited value and not shown as they refer either to inactive or non-diffusing compounds)
GI% UO-31 [4]: – (Only GI% ≥ 10 are shown)
GI% RXF 393 [5]: – (Only GI% ≥ 10 are shown)
GI% SNB-75 [6]: 27%
GI% HT29 [7]: – (Only GI% ≥ 10 are shown)
GI% NCI-H23 [8]: – (Only GI% ≥ 10 are shown)
GI% TK-10 [9]: – (Only GI% ≥ 10 are shown)
GI% UACC-62 [10]: – (Only GI% ≥ 10 are shown)
GI% SK-MEL-28 [11]: – (Only GI% ≥ 10 are shown)
GI% A498 [12]: – (Only GI% ≥ 10 are shown)
zone of inhibition at 1000 µg/mL ([13]; Aspergillus flavus, 24 h, read-out: Diameter of inhibition zone, A. flavus): 7 mm
% activity index, A. flavus ([13]; relative to clotrimazole): 28%
GI% UACC-257 [14]: – (Only GI% ≥ 10 are shown)
GI% SF-295 [15]: – (Only GI% ≥ 10 are shown)
GI% CAKI-1 [16]: 15%
GI% NCI-H460 [17]: – (Only GI% ≥ 10 are shown)
GI% SN12C [18]: – (Only GI% ≥ 10 are shown)
GI% MCF7 [19]: 13%
% activity index, E. coli [20]: – (Values below 25 are of limited value and not shown as they refer either to inactive or non-diffusing compounds)
GI% NCI/ADR-RES [21]: – (Only GI% ≥ 10 are shown)
GI% RPMI-8226 [22]: 12%
GI% HL-60(TB) [23]: – (Only GI% ≥ 10 are shown)
GI% MDA-MB-435 [24]: – (Only GI% ≥ 10 are shown)
% activity index, C. albicans [25]: – (Values below 25 are of limited value and not shown as they refer either to inactive or non-diffusing compounds)
GI% COLO 205 [26]: – (Only GI% ≥ 10 are shown)
GI% 786-0 [27]: – (Only GI% ≥ 10 are shown)
GI% U251 [28]: – (Only GI% ≥ 10 are shown)
GI% K-562 [29]: – (Only GI% ≥ 10 are shown)
GI% MOLT-4 [30]: – (Only GI% ≥ 10 are shown)
GI% HOP-92 [31]: 10%
GI% T-47D [32]: 12%
GI% HCT-15 [33]: – (Only GI% ≥ 10 are shown)
melting point: 157 to 159 °C
GI% SK-MEL-2 [34]: – (Only GI% ≥ 10 are shown)
% activity index, S. aureus [35]: – (Values below 25 are of limited value and not shown as they refer either to inactive or non-diffusing compounds)
GI% DU-145 [36]: – (Only GI% ≥ 10 are shown)
GI% NCI-H522 [37]: – (Only GI% ≥ 10 are shown)
GI% CCRF-CEM [38]: – (Only GI% ≥ 10 are shown)
Mean GI% [39]: 0%
GI% ACHN [40]: – (Only GI% ≥ 10 are shown)
GI% EKVX [41]: – (Only GI% ≥ 10 are shown)
GI% LOX IMVI [42]: – (Only GI% ≥ 10 are shown)
GI% HOP-62 [43]: – (Only GI% ≥ 10 are shown)
GI% SR [44]: 15%
GI% KM12 [45]: – (Only GI% ≥ 10 are shown)
GI% SF-268 [46]: – (Only GI% ≥ 10 are shown)
GI% NCI-H226 [47]: – (Only GI% ≥ 10 are shown)
GI% HCT-116 [48]: – (Only GI% ≥ 10 are shown)
GI% BT-549 [49]: – (Only GI% ≥ 10 are shown)
GI% SNB-19 [50]: – (Only GI% ≥ 10 are shown)
GI% SW-620 [51]: – (Only GI% ≥ 10 are shown)
GI% NCI-H322M [52]: – (Only GI% ≥ 10 are shown)
GI% IGROV1 [53]: – (Only GI% ≥ 10 are shown)
% activity index, B. subtilis [54]: – (Values below 25 are of limited value and not shown as they refer either to inactive or non-diffusing compounds)
GI% MDA-MB-231 [55]: – (Only GI% ≥ 10 are shown)
GI% OVCAR-8 [56]: – (Only GI% ≥ 10 are shown)
GI% SK-OV-3 [57]: – (Only GI% ≥ 10 are shown)
GI% MALME-3M [58]: – (Only GI% ≥ 10 are shown)
GI% HCC-2998 [59]: – (Only GI% ≥ 10 are shown)
GI% A549/ATCC [60]: – (Only GI% ≥ 10 are shown)
GI% SF-539 [61]: – (Only GI% ≥ 10 are shown)
GI% SK-MEL-5 [62]: – (Only GI% ≥ 10 are shown)
GI% MDA-MB-468 [63]: – (Only GI% ≥ 10 are shown)
GI% OVCAR-5 [64]: – (Only GI% ≥ 10 are shown)
GI% OVCAR-4 [65]: – (Only GI% ≥ 10 are shown)
GI% OVCAR-3 [66]: – (Only GI% ≥ 10 are shown)
GI% HS578T [67]: – (Only GI% ≥ 10 are shown)
